# Laboratory results taken from US10954305B2 (Immunomedics, Inc., priority 2016, dated 2021).
# Entries after “also recorded” stand apart in the source; their conditions may differ.
# Columns and labels:
# CDC activity = format: cell-based
# Capan-1 tumors = test: CL2 vs CL2A linker, Capan-1 xenograft; format: in vivo, mice; conditions: 0.2 mg/kg SN-38 twice weekly × 4 weeks
# Method: FIG. 4C. […] Capan-1 mice (N=10) were treated with 0.2 mg/kg ADC and tumors measured weekly.
# p21^Waf1/Cip1 in Calu-3 = test: p21Waf1/Cip1 expression; format: cell-based, human
# Source text: SN-38 is known to activate several signaling pathways in cells, leading to apoptosis (e.g., Cusack et al., 2001, Cancer Res 61:3535-40; Liu et al. 2009, Cancer Lett 274:47-53; Lagadec et al., 2008, Br J Cancer 98:335-44). Our initial studies examined the expression of 2 proteins involved in early signaling events (p21^Waf1/Cip1 and p53) and 1 late apoptotic event [cleavage of poly-ADP-ribose polymerase (PARP)] in vitro (not shown).
# [1] = tolerability in Cynomolgus monkeys; format: in vivo
# Method: FIG. 6C. […] All animals were bled on day −1, 3, and 6. Four monkeys were bled on day 11 in the 0.96 mg/kg group, 3 in the 1.92 mg/kg group. Changes in neutrophil counts in Cynomolgus monkeys.
# FIG. 6D. […] All animals were bled on day −1, 3, and 6. Four monkeys were bled on day 11 in the 0.96 mg/kg group, 3 in the 1.92 mg/kg group. Changes in platelet counts in Cynomolgus monkeys.
# [2] = tested on: diverse metastatic solid cancers; test: Phase I/II clinical trial of IMMU-132, all tumor types; format: in vivo, human
# Method: Dose escalation followed a standard 3+3 scheme with 4 planned dose levels and dose delay or reduction allowed. Twenty-five patients (52-60 years old, 3 median prior chemotherapy regimens) were treated at dose levels of 8 (N=7), 10 (N=6), 12 (N=9), and 18 (N=3) mg/kg. […] Lower doses were acceptable for extended treatment with no treatment-related grade 4 toxicities and grade 3 toxicities limited to fatigue (N=3), neutropenia (N=2), diarrhea (N=1), and leukopenia (N=1). […] No pre-selection of patients based on tumor Trop-2 expression was undertaken.
# The trial was designed as a standard 3+3 Phase I design, starting at a dose of 8 mg/kg per injection, with dosages given weekly for 2 weeks in a 3-week treatment cycle.
# Prior to the start of each infusion, most patients received acetaminophen, anti-histamines (H1 and H2 blockers), and dexamethasone. Prophylactic use of antiemetics or anti-diarrheal medications was prohibited. Therapy consisted of 2 consecutive doses given on days 1 and 8 of a 3-week treatment cycle, with the intent to allow patients to continue treatment for up to 8 cycles (i.e., 16 treatments) unless there was unacceptable toxicity or progression. Patients showing disease stabilization or response after 8 cycles could continue treatments.
# esophageal cancer = test: Phase I/II clinical trial of IMMU-132, esophageal; format: in vivo, human
# [3] = tested on: non-small cell lung cancer; test: Phase I/II clinical trial of IMMU-132, NSCLC; format: in vivo, human
# Method: Out of 29 patients, there were 8 PR and 13 SD. […] The median time to progression was […], with a range from 1.8 to 15.5+ months and 47% of patients still undergoing treatment. Median PFS was 3.4 months at 8 mg/kg and 3.8 months at 10 mg/kg. However, studies are still ongoing and the median progression-free survival numbers are likely to improve.
# [4] = tested on: metastatic pancreatic cancer; test: Phase I/II clinical trial of IMMU-132, PDC; format: in vivo, human
# urothelial cancer = test: Phase I/II clinical trial of IMMU-132, urothelial; format: in vivo, human; conditions: 11 assessable patients, 8 or 10 mg/kg
# [5] = Phase I/II clinical trial of IMMU-132, immunogenicity; format: in vivo, human; conditions: repeated dosing
# HCC1806 (Trop-2+) = test: dsDNA breaks, rH2AX flow cytometry; format: cell-based, human; conditions: untreated baseline 168
# Method: For drug activity testing, HCC1806 and HCC1395 TNBC cell lines cells were seeded in 6-well plates at 5×10^5 cells/well and held at 37° C. overnight. […] The signal intensity of rH2AX was measured by flow cytometry using a BD FACSCalibur (BD Biosciences, San Jose, Calif.).
# The cells were then washed to remove unbound conjugate, and then incubated overnight at 37° C.
# MDA-MB-468 TNBC tumors = test: MDA-MB-468 TNBC xenograft therapy; format: in vivo, nude mice; conditions: one animal each, tumors progressed after irinotecan
# Source text: The size of the tumors in the individual animals of this group from the onset of tumor transplantation is given.
# [6] = tested on: p21^WAF1/Cip1 in MDA-MB-468; test: immunoblotting of apoptotic pathway; format: cell-based, human; conditions: by 48 h
# Method: Cells (2×10^6) were plated in 6-well plates overnight. […] Parental hRS7 was used as a control for the ADC.
# [7] = mouse, in vivo
# NCI-N87-S-120 tumors = test: SN-38-resistant xenograft therapy; conditions: IMMU-132 0.5 mg twice weekly ×4 weeks; irinotecan 40 mg/kg q2dx5
# Method: Mice were euthanized once tumors grew to >1.0 cm^3 in size.
# NCr female athymic nude (nu/nu) mice, 4 weeks old, were purchased from Taconic Farms. […] Tumor volume (TV) was determined by measurements in two dimensions using calipers, with volumes defined as: L×w^2/2, where L is the longest dimension of the tumor and w the shortest. […] Control mice received each agent alone. […] Mice were euthanized and deemed to have succumbed to disease once tumors grew to >1.0 cm^3 in size.
# [8] = tolerability in Swiss-Webster mice; conditions: normal mice, over 1 week
substance,measurement,setting,value
hRS7 IgG,CDC activity,CDC activity,no CDC activity
IMMU-132,mice tumor-free at end of study (day 140),Capan-1 tumors,50%
same,p21^Waf1/CiP1 expression over free SN-38,p21^Waf1/Cip1 in Calu-3,more than 2 fold
same,MTD,"[1]; cynomolgus monkey, in vivo",2×0.96 and 1.92
same,human equivalent dose of MTD,"[1]; cynomolgus monkey, in vivo",2×0.3 to 0.6
same,blood counts,"[1]; cynomolgus monkey, in vivo, 0.96 mg/kg",only transient decreases in blood counts
same,tolerated dose,[1]; mild and reversible toxicity,0.96 mg/kg/dose
same,duration of maintained disease control,[2]; 12 patients,16-36 weeks
same,long-term stable disease,"[2]; 24 assessable patients, Phase I",Over 80%
same,disease response,[2]; 48 assessable patients (excluding PDC),79%
same,"TTP, range",[2]; 48 patients,6.0 to 51.4 wks
same,time to progression (TTP),[2]; 48 patients,≥ 12.6 wks
same,patients with partial response,"[2]; Phase I, 25 patients",3
same,patients with progression (PD),"[2]; Phase I, 25 patients",7
same,patients with stable disease,"[2]; Phase I, 25 patients",15
same,responses or disease stabilization after prior topoisomerase I inhibitor,"[2]; human, in vivo",7 of 9
same,PD,[2]; of 48 assessable patients,14
same,PR,[2]; of 48 assessable patients,7
same,PD,esophageal cancer; of 4 assessable patients,1
same,PR,esophageal cancer; of 4 assessable patients,1
same,duration of SD,"esophageal cancer; patient 25, 18 then 13.5 mg/kg",30 weeks
same,PD,[3]; of 5 assessable patients,1
same,PR,[3]; of 5 assessable patients,1
same,PR,"[3]; out of 29 patients, 8 or 10 mg/kg",8
same,primary target lesion at first CT,"[3]; person, from 5.6 cm, after 6 doses",3.2 cm
same,decrease in serum CA19-9 titers,[4]; 3 patients with stable disease,23 to 72%
same,"duration of stable disease, range",[4]; 8 patients,8 to 21.4 wks
same,stable disease,[4]; 13 CT-assessable PDC patients,62%
same,median TTP / duration of SD,"[4]; CT-assessable PDC patients, 8.0 weeks in last prior therapy",12.7 wks
same,"TTP, range",[4]; PDC patients,2 to 21.4 wks
same,"time to progression, range","[4]; Phase I, N=7",1.0 to 4.0 months
same,median TTP,[4]; all 14 PDC patients,11.9 wks
same,PR,urothelial cancer,6
same,anti-hRS7 / anti-SN-38 antibody response,[5],No anti-hRS7 or anti-SN-38 antibodies were detected; also recorded: no anti-hRS7 or anti-SN-38 antibody response has been detected; also recorded: none of the patients developed an antibody response to IMMU-132 or SN-38
same,anti-hRS7 / anti-SN-38 antibody response,[5]; listed as sacituzumab govitecan,no antibody response to the hRS7 IgG or SN-38 was detected
same,Median fluorescence intensity (rH2AX),HCC1806 (Trop-2+),546
same,decrease in tumor size on re-treatment,MDA-MB-468 TNBC tumors,60%
same,decrease of p21^WAF1/Cip1,[6],43%
same,"chloride levels, range",[7],116 to 127 mmol/L
same,"glucose levels, range",[7]; 8 mg/kg,273 to 320 mg/dL
same,survival benefit,NCI-N87-S-120 tumors,no significant survival benefit
same,cumulative dose without acute toxicity,[8],24 mg/kg SN-38
